Results published in patent US20070043108A1, “Use of equol for ameliorating or preventing neuropsychiatric and neurodegenerative diseases or disorders” (priority 2002, published 2007).

Tested on: intact males
Experiment: Example 2: tissue weights from intact males given sc injections of racemic equol
Assay type: in vivo, rat
Conditions: sc once/day for 7 days

## Oc1ccc(C2COc3cc(O)ccc3C2)cc1 (racemic) [equol, 7-hydroxy-3(4′hydroxyphenyl)-chroman]
  Body (g): 418.0 (±7.52) g
  Epididymis (g): 1.59 (±0.06) g
  Pituitary (g): 0.014 (±0.002) g
  Prostate (g): 0.38 (±0.06) g
  Testes (g): 3.48 (±0.08) g
